Results as given in PubChem BioAssay AID1963854 (Molecular Pharmacology Branch, DTP, NCI, 2024).

Test system: 186277-243-T-J2-PDC complex spheroid viability
Test: Anticancer human tumor 186277-243-T-J2-PDC patient-derived colon adenocarcinoma cell line growth inhibition [POLQ]
Conditions: for IC50: curve of first compound; for viability, T/C: stronger effect = lower value
Method in brief: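 Patient-derived tumour cells were co-cultured with HUVEC and mesenchymal stem cells as multicellular spheroids at 37 °C. They were treated with POLQ inhibitors (novobiocin, ART-558, RP6685) alone or combined with other agents. Top concentrations were at or near clinical Cmax (otherwise 10 microM; SN-38 at 1 microM), decreasing in half-log steps.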

[1] = second compound 0.0316 µM, first compound 0.00316 µM
[2] = second compound 0.0316 µM, first compound 0.01 µM
[3] = second compound 0.0316 µM, first compound 0.0316 µM
[4] = second compound 0.0316 µM, first compound 0.1 µM
[5] = second compound 0.1 µM, first compound 0.00316 µM
[6] = second compound 0.1 µM, first compound 0.01 µM
[7] = second compound 0.1 µM, first compound 0.0316 µM
[8] = second compound 0.1 µM, first compound 0.1 µM
[9] = second compound 0.316 µM, first compound 0.00316 µM
[10] = second compound 0.316 µM, first compound 0.01 µM
[11] = second compound 0.316 µM, first compound 0.0316 µM
[12] = second compound 0.316 µM, first compound 0.1 µM
[13] = second compound 1 µM, first compound 0.00316 µM
[14] = second compound 1 µM, first compound 0.01 µM
[15] = second compound 1 µM, first compound 0.0316 µM
[16] = second compound 1 µM, first compound 0.1 µM
[17] = second compound 3.16 µM, first compound 0.00316 µM
[18] = second compound 3.16 µM, first compound 0.01 µM
[19] = second compound 3.16 µM, first compound 0.0316 µM
[20] = second compound 3.16 µM, first compound 0.1 µM
[21] = second compound 10 µM, first compound 0.00316 µM
[22] = second compound 10 µM, first compound 0.01 µM
[23] = second compound 10 µM, first compound 0.0316 µM
[24] = second compound 10 µM, first compound 0.1 µM
[25] = second compound 0.0316 µM, first compound 0.316 µM
[26] = second compound 0.0316 µM, first compound 1 µM
[27] = second compound 0.1 µM, first compound 0.316 µM
[28] = second compound 0.1 µM, first compound 1 µM
[29] = second compound 0.316 µM, first compound 0.316 µM
[30] = second compound 0.316 µM, first compound 1 µM
[31] = second compound 1 µM, first compound 0.316 µM
[32] = second compound 1 µM, first compound 1 µM
[33] = second compound 3.16 µM, first compound 0.316 µM
[34] = second compound 3.16 µM, first compound 1 µM
[35] = second compound 10 µM, first compound 0.316 µM
[36] = second compound 10 µM, first compound 1 µM
[37] = second compound 0.0316 µM, first compound 3.16 µM
[38] = second compound 0.0316 µM, first compound 10 µM
[39] = second compound 0.1 µM, first compound 3.16 µM
[40] = second compound 0.1 µM, first compound 10 µM
[41] = second compound 0.316 µM, first compound 3.16 µM
[42] = second compound 0.316 µM, first compound 10 µM
[43] = second compound 1 µM, first compound 3.16 µM
[44] = second compound 1 µM, first compound 10 µM
[45] = second compound 3.16 µM, first compound 3.16 µM
[46] = second compound 3.16 µM, first compound 10 µM
[47] = second compound 10 µM, first compound 3.16 µM
[48] = second compound 10 µM, first compound 10 µM
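Note: spheroids exposed to compounds for seven days.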
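Throughout, for viability, T/C: 100% = DMSO vehicle control viability.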

Structure (SMILES): CC[C@@]1(O)C(=O)OCc2c1cc1n(c2=O)Cc2cc3c(CN(C)C)c(O)ccc3nc2-1 + Cc1cccc(N(C)C(=O)C2C(O)CCN2c2nc(C)cc(C(F)(F)F)c2C#N)c1
- IC50 (second compound 0.0316 µM): 0.0933 µM
- IC50 (second compound 0.1 µM): 0.0984 µM
- IC50 (second compound 0.316 µM): 0.0936 µM
- IC50 (second compound 1 µM): 0.086 µM
- IC50 (second compound 3.16 µM): 0.0846 µM
- IC50 (second compound 10 µM): 0.0616 µM
- viability, T/C (second compound 0.0316 µM, first compound 0.000316 µM): 112%
- viability, T/C (second compound 0.0316 µM, first compound 0.001 µM): 83.4%
- viability, T/C [1]: 90.6%
- viability, T/C [2]: 104%
- viability, T/C [3]: 67%
- viability, T/C [4]: 48.9%
- viability, T/C (second compound 0.1 µM, first compound 0.000316 µM): 102%
- viability, T/C (second compound 0.1 µM, first compound 0.001 µM): 96.7%
- viability, T/C [5]: 96%
- viability, T/C [6]: 103%
- viability, T/C [7]: 74.8%
- viability, T/C [8]: 49.6%
- viability, T/C (second compound 0.316 µM, first compound 0.000316 µM): 83.1%
- viability, T/C (second compound 0.316 µM, first compound 0.001 µM): 106%
- viability, T/C [9]: 99.4%
- viability, T/C [10]: 118%
- viability, T/C [11]: 71.7%
- viability, T/C [12]: 48.7%
- viability, T/C (second compound 1 µM, first compound 0.000316 µM): 105%
- viability, T/C (second compound 1 µM, first compound 0.001 µM): 96.9%
- viability, T/C [13]: 96.7%
- viability, T/C [14]: 114%
- viability, T/C [15]: 74%
- viability, T/C [16]: 46.4%
- viability, T/C (second compound 3.16 µM, first compound 0.000316 µM): 102%
- viability, T/C (second compound 3.16 µM, first compound 0.001 µM): 100%
- viability, T/C [17]: 96.2%
- viability, T/C [18]: 115%
- viability, T/C [19]: 73.9%
- viability, T/C [20]: 45.9%
- viability, T/C (second compound 10 µM, first compound 0.000316 µM): 115%
- viability, T/C (second compound 10 µM, first compound 0.001 µM): 96.2%
- viability, T/C [21]: 104%
- viability, T/C [22]: 87.5%
- viability, T/C [23]: 59.8%
- viability, T/C [24]: 42.6%

Structure (SMILES): CCc1c2c(nc3ccc(O)cc13)-c1cc3c(c(=O)n1C2)COC(=O)[C@]3(O)CC + Cc1cccc(N(C)C(=O)C2C(O)CCN2c2nc(C)cc(C(F)(F)F)c2C#N)c1
- IC50 (second compound 0.0316 µM): 0.00932 µM
- IC50 (second compound 0.1 µM): 0.0102 µM
- IC50 (second compound 0.316 µM): 0.0108 µM
- IC50 (second compound 1 µM): 0.0101 µM
- IC50 (second compound 3.16 µM): 0.00958 µM
- IC50 (second compound 10 µM): 0.00553 µM
- viability, T/C [1]: 69%
- viability, T/C [2]: 48.5%
- viability, T/C [3]: 27%
- viability, T/C [4]: 12.7%
- viability, T/C [25]: 10.5%
- viability, T/C [26]: 7.92%
- viability, T/C [5]: 74%
- viability, T/C [6]: 50.3%
- viability, T/C [7]: 25.7%
- viability, T/C [8]: 12.8%
- viability, T/C [27]: 9.86%
- viability, T/C [28]: 7.71%
- viability, T/C [9]: 66.5%
- viability, T/C [10]: 51.6%
- viability, T/C [11]: 27.9%
- viability, T/C [12]: 13.8%
- viability, T/C [29]: 9.55%
- viability, T/C [30]: 8.34%
- viability, T/C [13]: 73%
- viability, T/C [14]: 50.3%
- viability, T/C [15]: 24%
- viability, T/C [16]: 12.7%
- viability, T/C [31]: 10.4%
- viability, T/C [32]: 7.86%
- viability, T/C [17]: 59.1%
- viability, T/C [18]: 50.1%
- viability, T/C [19]: 24.3%
- viability, T/C [20]: 12.1%
- viability, T/C [33]: 9.42%
- viability, T/C [34]: 6.8%
- viability, T/C [21]: 58.6%
- viability, T/C [22]: 40.8%
- viability, T/C [23]: 21%
- viability, T/C [24]: 9.71%
- viability, T/C [35]: 8.72%
- viability, T/C [36]: 6.68%

Structure (SMILES): Nc1ccn(C2OC(CO)C(O)C2(F)F)c(=O)n1 (stereo not drawn) + Cc1cccc(N(C)C(=O)C2C(O)CCN2c2nc(C)cc(C(F)(F)F)c2C#N)c1
- IC50 (second compound 0.0316 µM): < 0.0316 µM
- IC50 (second compound 0.1 µM): < 0.0316 µM
- IC50 (second compound 0.316 µM): < 0.0316 µM
- IC50 (second compound 1 µM): < 0.0316 µM
- IC50 (second compound 3.16 µM): < 0.0316 µM
- IC50 (second compound 10 µM): < 0.0316 µM
- viability, T/C [3]: 7.07%
- viability, T/C [4]: 6.17%
- viability, T/C [25]: 6.28%
- viability, T/C [26]: 7.91%
- viability, T/C [37]: 7.05%
- viability, T/C [38]: 6.44%
- viability, T/C [7]: 7.12%
- viability, T/C [8]: 6.99%
- viability, T/C [27]: 7.56%
- viability, T/C [28]: 8.01%
- viability, T/C [39]: 7.17%
- viability, T/C [40]: 6.37%
- viability, T/C [11]: 7.95%
- viability, T/C [12]: 7.37%
- viability, T/C [29]: 7%
- viability, T/C [30]: 7.74%
- viability, T/C [41]: 7.97%
- viability, T/C [42]: 5.75%
- viability, T/C [15]: 8.61%
- viability, T/C [16]: 6.36%
- viability, T/C [31]: 7.13%
- viability, T/C [32]: 7.45%
- viability, T/C [43]: 8.07%
- viability, T/C [44]: 6.24%
- viability, T/C [19]: 6.68%
- viability, T/C [20]: 6.49%
- viability, T/C [33]: 6.57%
- viability, T/C [34]: 7.84%
- viability, T/C [45]: 7.96%
- viability, T/C [46]: 6.36%
- viability, T/C [23]: 6.88%
- viability, T/C [24]: 5.82%
- viability, T/C [35]: 5.86%
- viability, T/C [36]: 6.97%
- viability, T/C [47]: 6.86%
- viability, T/C [48]: 5.93%

Structure (SMILES): O=C(c1cc(Cc2n[nH]c(=O)c3ccccc23)ccc1F)N1CCN(C(=O)C2CC2)CC1 + Cc1cccc(N(C)C(=O)C2C(O)CCN2c2nc(C)cc(C(F)(F)F)c2C#N)c1
- IC50 (second compound 0.0316 µM): > 10 µM
- IC50 (second compound 0.1 µM): > 10 µM
- IC50 (second compound 0.316 µM): > 10 µM
- IC50 (second compound 1 µM): > 10 µM
- IC50 (second compound 3.16 µM): > 10 µM
- IC50 (second compound 10 µM): > 10 µM
- viability, T/C [3]: 89.3%
- viability, T/C [4]: 99.9%
- viability, T/C [25]: 99.9%
- viability, T/C [26]: 100%
- viability, T/C [37]: 118%
- viability, T/C [38]: 75.5%
- viability, T/C [7]: 94%
- viability, T/C [8]: 92.4%
- viability, T/C [27]: 96.3%
- viability, T/C [28]: 92.7%
- viability, T/C [39]: 114%
- viability, T/C [40]: 81.8%
- viability, T/C [11]: 94.8%
- viability, T/C [12]: 116%
- viability, T/C [29]: 99.7%
- viability, T/C [30]: 97%
- viability, T/C [41]: 112%
- viability, T/C [42]: 78.1%
- viability, T/C [15]: 101%
- viability, T/C [16]: 96.8%
- viability, T/C [31]: 113%
- viability, T/C [32]: 90.7%
- viability, T/C [43]: 99.5%
- viability, T/C [44]: 76.1%
- viability, T/C [19]: 96.3%
- viability, T/C [20]: 99%
- viability, T/C [33]: 97.6%
- viability, T/C [34]: 106%
- viability, T/C [45]: 113%
- viability, T/C [46]: 58.7%
- viability, T/C [23]: 115%
- viability, T/C [24]: 103%
- viability, T/C [35]: 100%
- viability, T/C [36]: 108%
- viability, T/C [47]: 113%
- viability, T/C [48]: 65.2%
